Data as given in patent publication US10376520B2, “Methods for the treatment of cardiovascular disorders” (Galapagos NV, priority 2015, dated 2019).

Tested on: RA patients
Experiment: [HDL] determination, Study 1 (RA patients, add-on to MTX)
Type: in vivo, human
Procedure: Double-blind, placebo-controlled add on study in subjects with moderately to severely active RA who have an inadequate response to methotrexate (MTX) (oral or parenteral).
595 subjects randomized to one of 6 dose regimens of Compound 1 (dosed as a [Compound 1:HCl:3H2O]) (3 dose levels administered either once or twice daily) or placebo on top of each subject's stable dose of MTX.
Compound 1 (dosed as a [Compound 1:HCl:3H2O]) is dosed for twelve weeks once daily (q.d.) (50 mg, 100 mg or 200 mg) or twice daily (b.i.d.) (25 mg, 50 mg or 100 mg); or placebo.
At Week 12, the subjects on placebo who have not achieved 20% improvement in swollen joint count (SJC66) and tender joint count (TJC68) are re-randomized automatically to receive Compound 1 (dosed as a [Compound 1:HCl:3H2O]) either at 100 mg q.d. or 50 mg b.i.d. doses in a blinded fashion; subjects on 50 mg q.d. who have not achieved 20% improvement in SJC66 and TJC68 will be assigned to 100 mg q.d. and subjects on 25 mg b.i.d. that have not achieved a 20% improvement in SJC66 and TJC68 will be assigned to 50 mg b.i.d. Subjects who switch treatment at week 12 are handled as if they discontinued at week 12 for the purpose of statistical analysis, whereas subjects in the other groups will maintain their randomized treatment until Week 24.
This assay relies on a homogeneous enzymatic colorimetric test. In the presence of magnesium ions, dextran sulfate selectively forms water-soluble complexes with LDL, VLDL and chylomicrons which are resistant to PEG-modified enzymes.
The cholesterol concentration of [HDL]-cholesterol is determined enzymatically by cholesterol esterase and cholesterol oxidase coupled with PEG to the amino groups (approx. 40%).
In the presence of peroxidase, the hydrogen peroxide generated reacts with 4-amino-antipyrine and Sodium N-(2-hydroxy-3-sulfopropyl)-3,5-dimethoxyaniline (HSDA) to form a purple-blue dye. The color intensity of this dye is directly proportional to the cholesterol concentration and is measured photometrically.
Human serum and plasma samples [HDL] determination was done on a Roche/Hitachi Cobas c 701/702 system which automatically calculate the analyte concentration of each sample. Samples containing precipitates are centrifuged before performing the assay.

[1] = continued 50 mg q.d. (N = 63), week 4
[2] = continued 50 mg q.d. (N = 63), week 8
[3] = continued 50 mg q.d. (N = 63), week 12
[4] = continued 50 mg q.d. (N = 63), week 16
[5] = continued 50 mg q.d. (N = 63), week 20
[6] = continued 50 mg q.d. (N = 63), week 24
[7] = continued 100 mg b.i.d. (N = 84), week 1
[8] = continued 100 mg b.i.d. (N = 84), week 2
[9] = continued 100 mg b.i.d. (N = 84), week 4
[10] = continued 100 mg b.i.d. (N = 84), week 8
[11] = continued 100 mg b.i.d. (N = 84), week 12
[12] = continued 100 mg b.i.d. (N = 84), week 16
[13] = continued 100 mg b.i.d. (N = 84), week 20
[14] = continued 100 mg b.i.d. (N = 84), week 24
[15] = continued 100 mg q.d. (N = 85), week 1
[16] = continued 100 mg q.d. (N = 85), week 2
[17] = continued 100 mg q.d. (N = 85), week 4
[18] = continued 100 mg q.d. (N = 85), week 8
[19] = continued 100 mg q.d. (N = 85), week 12
[20] = continued 100 mg q.d. (N = 85), week 16
[21] = continued 100 mg q.d. (N = 85), week 20
[22] = continued 100 mg q.d. (N = 85), week 24
[23] = continued 200 mg q.d. (N = 86), week 1
[24] = continued 200 mg q.d. (N = 86), week 2

O=C(Nc1nc2cccc(-c3ccc(CN4CCS(=O)(=O)CC4)cc3)n2n1)C1CC1 [Compound 1, cyclopropanecarboxylic acid {5-[4-(1,1-dioxo-thiomorpholin-4-ylmethyl)-phenyl]-[1,2,4]triazolo[1,5-a]pyridin-2yl}-amide]
[HDL] Mean percentage CFB - 24 weeks results [1]: 4.87%
[HDL] Median CFB - 24 weeks results [1]: 0.05 mmol/L
[HDL] Mean CFB - 24 weeks results [2]: 0.06 mmol/L
[HDL] Mean percentage CFB - 24 weeks results [2]: 5.57%
[HDL] Median CFB - 24 weeks results [2]: 0.10 mmol/L
[HDL] Mean CFB - 24 weeks results [3]: 0.08 mmol/L
[HDL] Mean percentage CFB - 24 weeks results [3]: 7.86%
[HDL] Median CFB - 24 weeks results [3]: 0.06 mmol/L
[HDL] Mean CFB - 24 weeks results [4]: 0.08 mmol/L
[HDL] Mean percentage CFB - 24 weeks results [4]: 6.63%
[HDL] Median CFB - 24 weeks results [4]: 0.10 mmol/L
[HDL] Mean CFB - 24 weeks results [5]: 0.10 mmol/L
[HDL] Mean percentage CFB - 24 weeks results [5]: 8.81%
[HDL] Median CFB - 24 weeks results [5]: 0.10 mmol/L
[HDL] Mean CFB - 24 weeks results [6]: 0.17 mmol/L
[HDL] Mean percentage CFB - 24 weeks results [6]: 14.22%
[HDL] Median CFB - 24 weeks results [6]: 0.15 mmol/L
[HDL] Mean CFB - 24 weeks results [7]: 0.12 mmol/L
[HDL] Mean percentage CFB - 24 weeks results [7]: 9.40%
[HDL] Median CFB - 24 weeks results [7]: 0.10 mmol/L
[HDL] Mean CFB - 24 weeks results [8]: 0.20 mmol/L
[HDL] Mean percentage CFB - 24 weeks results [8]: 15.20%
[HDL] Median CFB - 24 weeks results [8]: 0.18 mmol/L
[HDL] Mean CFB - 24 weeks results [9]: 0.25 mmol/L
[HDL] Mean percentage CFB - 24 weeks results [9]: 19.54%
[HDL] Median CFB - 24 weeks results [9]: 0.25 mmol/L
[HDL] Mean CFB - 24 weeks results [10]: 0.26 mmol/L
[HDL] Mean percentage CFB - 24 weeks results [10]: 21.15%
[HDL] Median CFB - 24 weeks results [10]: 0.25 mmol/L
[HDL] Mean CFB - 24 weeks results [11]: 0.30 mmol/L
[HDL] Mean percentage CFB - 24 weeks results [11]: 23.14%
[HDL] Median CFB - 24 weeks results [11]: 0.25 mmol/L
[HDL] Mean CFB - 24 weeks results [12]: 0.27 mmol/L
[HDL] Mean percentage CFB - 24 weeks results [12]: 21.09%
[HDL] Median CFB - 24 weeks results [12]: 0.28 mmol/L
[HDL] Mean CFB - 24 weeks results [13]: 0.28 mmol/L
[HDL] Mean percentage CFB - 24 weeks results [13]: 21.88%
[HDL] Median CFB - 24 weeks results [13]: 0.29 mmol/L
[HDL] Mean CFB - 24 weeks results [14]: 0.29 mmol/L
[HDL] Mean percentage CFB - 24 weeks results [14]: 22.68%
[HDL] Median CFB - 24 weeks results [14]: 0.30 mmol/L
[HDL] Mean CFB - 24 weeks results [15]: 0.05 mmol/L
[HDL] Mean percentage CFB - 24 weeks results [15]: 5.43%
[HDL] Median CFB - 24 weeks results [15]: 0.06 mmol/L
[HDL] Mean CFB - 24 weeks results [16]: 0.07 mmol/L
[HDL] Mean percentage CFB - 24 weeks results [16]: 7.02%
[HDL] Median CFB - 24 weeks results [16]: 0.07 mmol/L
[HDL] Mean CFB - 24 weeks results [17]: 0.11 mmol/L
[HDL] Mean percentage CFB - 24 weeks results [17]: 9.40%
[HDL] Median CFB - 24 weeks results [17]: 0.13 mmol/L
[HDL] Mean CFB - 24 weeks results [18]: 0.09 mmol/L
[HDL] Mean percentage CFB - 24 weeks results [18]: 8.18%
[HDL] Median CFB - 24 weeks results [18]: 0.11 mmol/L
[HDL] Mean CFB - 24 weeks results [19]: 0.10 mmol/L
[HDL] Mean percentage CFB - 24 weeks results [19]: 8.49%
[HDL] Median CFB - 24 weeks results [19]: 0.10 mmol/L
[HDL] Mean CFB - 24 weeks results [20]: 0.09 mmol/L
[HDL] Mean percentage CFB - 24 weeks results [20]: 7.94%
[HDL] Median CFB - 24 weeks results [20]: 0.10 mmol/L
[HDL] Mean CFB - 24 weeks results [21]: 0.15 mmol/L
[HDL] Mean percentage CFB - 24 weeks results [21]: 12.24%
[HDL] Median CFB - 24 weeks results [21]: 0.14 mmol/L
[HDL] Mean CFB - 24 weeks results [22]: 0.15 mmol/L
[HDL] Mean percentage CFB - 24 weeks results [22]: 12.17%
[HDL] Median CFB - 24 weeks results [22]: 0.15 mmol/L
[HDL] Mean CFB - 24 weeks results [23]: 0.11 mmol/L
[HDL] Mean percentage CFB - 24 weeks results [23]: 9.42%
[HDL] Median CFB - 24 weeks results [23]: 0.13 mmol/L
[HDL] Mean CFB - 24 weeks results [24]: 0.20 mmol/L
[HDL] Mean percentage CFB - 24 weeks results [24]: 16.66%
[HDL] Median CFB - 24 weeks results [24]: 0.20 mmol/L
[HDL] Mean CFB - 24 weeks results (continued 200 mg q.d. (N = 86), week 4): 0.24 mmol/L
